Measured values as given in article PMC11513893, “Discovery of Oral Degraders of the ROS1 Fusion Protein with Potent Activity against Secondary Resistance Mutations” (Journal of Medicinal Chemistry, 2024).
Values belong to the compound of their own block, whether it stands above or below them.

How the values were obtained:
Ba/F3 ROS1 G2032R-F2075V = assay: Antiproliferation assay; assay type: cell-based; settings: Mus musculus, BaF3; Ba/F3 cells, cell growth inhibition
Source text: (§1) To assess targeted degradation of ROS1 fusion proteins, we first established a mouse pro-B cell line Ba/F3 as a model expressing the CD74-ROS1 oncogene or CD74-ROS1 with clinically observed secondary/tertiary mutations. The Ba/F3 cell line is dependent on interleukin-3 for survival and proliferation. Upon transduction of oncogenic ROS1, Ba/F3 cells become independent of interleukin-3 but dependent on the transduced driver gene.
(§2) Ba/F3 immortalized murine bone marrow–derived pro-B cells were obtained from Creative Biogene (Shirley, NY) and cultured in RPMI supplemented with 10% FBS and IL3 (0.5 ng/mL). Ba/F3 cells expressing ROS1 variants were maintained in RPMI supplemented with 10% FBS and puromycin (0.7 mg/mL). […] Each compound was dissolved in DMSO and serially diluted in RPMI for cell culture experiments.
(§3) To assess the 72 h effect of drug treatment on cell proliferation, 2000 to 3000 cells were plated in replicates of three in 96-well plates. The plates were placed in an incubator at 37 °C, 5% CO2 for 72 h. Following drug treatments, the cells were incubated with the Alamar Blue Assay reagent (BioRad), 5 μL each well for 4 h at 37 °C and 5% CO2. Luminescence was measured on a multiplate reader and analyzed. […] IC50 values were determined using a nonlinear regression model with a sigmoidal dose response in GraphPad. The data were collected based on triplicate experiments, and presented as mean ± SD.
(§4) The resulting virus was used to infect Ba/F3 cells. After retroviral infection, Ba/F3 cells were selected by incubation with puromycin (0.7 mg/mL) for 2 weeks. For Ba/F3 cells infected by the CD74–ROS1 variants, IL3 was withdrawn from the culture medium at least 2 weeks before the experiments.

Ba/F3 ROS1 D2033N = assay: Antiproliferation assay; assay type: cell-based; settings: Mus musculus, BaF3; Ba/F3 cells, cell growth inhibition
Source text: as §1, §2, §3, §4

Ba/F3 ROS1 L2026M = assay: Antiproliferation assay; assay type: cell-based; settings: Mus musculus, BaF3; Ba/F3 cells, cell growth inhibition
Source text: as §1, §2, §3, §4

[1] = test system: Ba/F3 ROS1 (CD74) S1986F-G2032R; assay: Antiproliferation assay; assay type: cell-based; settings: Mus musculus, BaF3; Ba/F3 cell line
Description: (§5) Ba/F3 immortalized murine bone marrow–derived pro-B cells were obtained from Creative Biogene (Shirley, NY) and cultured in RPMI supplemented with 10% FBS and IL3 (0.5 ng/mL). Ba/F3 cells expressing ROS1 variants were maintained in RPMI supplemented with 10% FBS and puromycin (0.7 mg/mL). Crizotinib, ceritinib, brigatinib, repotrectinib, and lorlatinib were purchased from MedChem Express. Each compound was dissolved in DMSO and serially diluted in RPMI for cell culture experiments.
as §3
as §4, with “cDNA encoding CD74-ROS1 or mutant CD74–ROS1 was cloned into retroviral expression vectors (pLenti), and viruses were generated in HEK293T cells by transfecting with packaging plasmids. The” for “The”

[2] = test system: Ba/F3 ROS1 (CD74) G2032R-L2086F; assay: Antiproliferation assay; assay type: cell-based; settings: Mus musculus, BaF3; Ba/F3 cell line
Description: as §5, §3
as §4, with “cDNA encoding CD74-ROS1 or mutant CD74–ROS1 was cloned into retroviral expression vectors (pLenti), and viruses were generated in HEK293T cells by transfecting with packaging plasmids. The” for “The”

Ba/F3 ROS1 (CD74) G2032R = assay: Antiproliferation assay; assay type: cell-based; settings: Mus musculus, BaF3; Ba/F3 cell line
Description: as §5, §3
as §4, with “cDNA encoding CD74-ROS1 or mutant CD74–ROS1 was cloned into retroviral expression vectors (pLenti), and viruses were generated in HEK293T cells by transfecting with packaging plasmids. The” for “The”

Ba/F3 ROS1 (CD74) L2086F = assay: Antiproliferation assay; assay type: cell-based; settings: Mus musculus, BaF3; Ba/F3 cell line
Description: as §5, §3
as §4, with “cDNA encoding CD74-ROS1 or mutant CD74–ROS1 was cloned into retroviral expression vectors (pLenti), and viruses were generated in HEK293T cells by transfecting with packaging plasmids. The” for “The”

[3] = test system: Ba/F3 ROS1 (CD74) S1986F-L2086F; assay: Antiproliferation assay; assay type: cell-based; settings: Mus musculus, BaF3; Ba/F3 cell line
Description: as §5, §3
as §4, with “cDNA encoding CD74-ROS1 or mutant CD74–ROS1 was cloned into retroviral expression vectors (pLenti), and viruses were generated in HEK293T cells by transfecting with packaging plasmids. The” for “The”

[4] = test system: Ba/F3 ROS1 (CD74) S1986F-G2032R-L2086F; assay: Antiproliferation assay; assay type: cell-based; settings: Mus musculus, BaF3; Ba/F3 cell line
Description: as §5, §3
as §4, with “cDNA encoding CD74-ROS1 or mutant CD74–ROS1 was cloned into retroviral expression vectors (pLenti), and viruses were generated in HEK293T cells by transfecting with packaging plasmids. The” for “The”

[5] = test system: Ba/F3 ROS1 (SLC34A2) G2032R-F2075C; assay: Antiproliferation assay; assay type: cell-based; settings: Mus musculus, BaF3; Ba/F3 cell line
Description: as §5, §3

[6] = test system: Ba/F3 ROS1 (SLC34A2) F2075C-G1837E; assay: Antiproliferation assay; assay type: cell-based; settings: Mus musculus, BaF3; Ba/F3 cell line
Description: as §5, §3

[7] = test system: Ba/F3 ROS1 (SLC34A2) G2032R-D2113G; assay: Antiproliferation assay; assay type: cell-based; settings: Mus musculus, BaF3; Ba/F3 cell line
Description: as §5, §3

Ba/F3 ROS1-G2032R = assay: Antiproliferation assay; assay type: cell-based, mouse; settings: Mus musculus, BaF3; Ba/F3 cells, cell growth inhibition, 72 h
[8] = test system: Ba/F3 ROS1 (SLC34A2) G2032R-F2075 V; assay: Antiproliferation assay; assay type: cell-based; settings: Mus musculus, BaF3; Ba/F3 cell line
Description: as §2, §3

[9] = test system: Ba/F3 ROS1 (SLC34A2) G2032R; assay: Antiproliferation assay; assay type: cell-based; settings: Mus musculus, BaF3; Ba/F3 cell line
Description: as §2, §3

[10] = test system: Ba/F3 ROS1 (SLC34A2) D2033N; assay: Antiproliferation assay; assay type: cell-based; settings: Mus musculus, BaF3; Ba/F3 cell line
Description: as §2, §3

[11] = test system: Ba/F3 ROS1 (SLC34A2) V2098I; assay: Antiproliferation assay; assay type: cell-based; settings: Mus musculus, BaF3; Ba/F3 cell line
Description: as §2, §3

[12] = test system: Ba/F3 ROS1 (SLC34A2) L2026M; assay: Antiproliferation assay; assay type: cell-based; settings: Mus musculus, BaF3; Ba/F3 cell line
Description: as §2, §3

Ba/F3 ROS1 L2086F = assay: Antiproliferation assay; assay type: cell-based; settings: Mus musculus, BaF3; Ba/F3 cells, cell growth inhibition
Source text: as §1, with “gene. The Ba/F3 models have been effectively employed in the discovery and preclinical development of next generation ROS1 inhibitors.[11],[14],[15] We have tested ROS1 inhibitors against these Ba/F3 cells to validate their sensitivity and resistance to ROS1 inhibition.” for “gene.”
as §5, §3
as §4, with “cDNA encoding CD74-ROS1 or mutant CD74–ROS1 was cloned into retroviral expression vectors (pLenti), and viruses were generated in HEK293T cells by transfecting with packaging plasmids. The” for “The”

[13] = test system: Ba/F3 CD74-ROS1 non mutant; assay: Antiproliferation assay (Alamar Blue, 72 h); assay type: cell-based, mouse; settings: Mus musculus, BaF3, 72 h, Ba/F3 cells, cell growth inhibition
[14] = test system: Ba/F3 cell lines engineered to express the oncogenic ROS1 rearrangement; settings: cited from earlier work
[15] = test system: Ba/F3 CD74-ROS1 WT xenograft tumors; assay: Mouse efficacy study, Ba/F3 CD74-ROS1 xenograft; assay type: in vivo; settings: NOD/SCID mice, 30 mg/kg PO qd
Description: (§6) All the procedures related to animal handling, care, and treatment in this study were performed according to guidelines approved by the Institutional Animal Care and Use Committee (IACUC) of Xavier University of Louisiana following the guidance of the AAALAC. Ba/F3-ROS1 and Ba/F3-ROS1-G2032R cells were maintained in RPMI 1640 medium supplemented with 10% fetal bovine serum. The cells growing in an exponential growth phase were harvested and counted for tumor inoculation. Female NOD/SCID mice 6–8 weeks of age were allowed to adapt to laboratory conditions for 10 days prior to dosing and were allowed food and water ad libitum. Each mouse was inoculated subcutaneously in the right flank with Ba/F3 CD74-ROS1 or Ba/F3 SL34A2-ROS1 G2032R cells (1 × 10^6) in 0.2 mL of PBS mixed with Matrigel (50:50) for tumor development.

[16] = test system: Ba/F3 SLC34A2-ROS1 G2032R xenograft tumors; assay: Mouse efficacy study, Ba/F3 SLC34A2-ROS1 G2032R xenograft; assay type: in vivo; settings: NOD/SCID mice, 30 mg/kg PO qd
Description: as §6

[17] = parameters: method as in PMID 30980071; settings: patients; cited from earlier work

SMILES: C[C@H]1Oc2cc(cnc2N)-c2c(nn(C)c2C#N)CN(C)C(=O)c2ccc(F)cc21 [lorlatinib]
IC50 (Ba/F3 ROS1 G2032R-F2075V): 233 ± 31 nM
IC50 (Ba/F3 ROS1 D2033N): 7.6 ± 1.3 nM
IC50 (Ba/F3 ROS1 L2026M): 1 ± 0.4 nM
IC50 [1]: 503 ± 77.4 nM
IC50 [2]: > 2000 nM
IC50 (Ba/F3 ROS1 (CD74) G2032R): 385 ± 76 nM
IC50 (Ba/F3 ROS1 (CD74) L2086F): > 2000 nM
IC50 [3]: > 2000 nM
IC50 [4]: > 2000 nM
IC50 [5]: > 2000 nM
IC50 [6]: 0.1 ± 0.1 nM
IC50 [7]: 142 ± 25.1 nM
IC50 (Ba/F3 ROS1-G2032R): 338 ± 55 nM
IC50 [8]: 341 ± 75.5 nM
IC50 [9]: 244 ± 35.3 nM
IC50 [10]: 7.6 ± 0.5 nM
IC50 [11]: 1.5 ± 0.4 nM
IC50 [12]: 1.1 ± 0.2 nM
IC50 (Ba/F3 ROS1 L2086F): > 2000 nM

IC50 (Ba/F3 ROS1 G2032R-F2075V): > 2000 nM
IC50 (Ba/F3 ROS1 D2033N): 135 ± 27 nM
IC50 (Ba/F3 ROS1 L2026M): 43 ± 5 nM
IC50 [13]: 14.5 ± 2.2 nM
IC50 (Ba/F3 ROS1-G2032R): 821 ± 148 nM
IC50 (Ba/F3 ROS1 L2086F): 215 ± 33 nM
SMILES: Cc1cc(Nc2ncc(Cl)c(Nc3ccccc3S(=O)(=O)C(C)C)n2)c(OC(C)C)cc1C1CCNCC1 [ceritinib]
IC50 [14]: 180 nM

IC50 (Ba/F3 ROS1 G2032R-F2075V): > 2000 nM
IC50 (Ba/F3 ROS1 D2033N): 187 ± 39 nM
IC50 (Ba/F3 ROS1-G2032R): > 2000 nM
IC50 (Ba/F3 ROS1 L2086F): 745 ± 88 nM
SMILES: C[C@@H](Oc1cc(-c2cnn(C3CCNCC3)c2)cnc1N)c1c(Cl)ccc(F)c1Cl [crizotinib]
TGI (tumor growth inhibition) [15]: 35%
TGI (tumor growth inhibition) [16]: 7%
objective response rate [17]: 72%
progression-free survival [17]: 19.2 months

SMILES: COc1cc(N2CCC(N3CCN(C)CC3)CC2)ccc1Nc1ncc(Cl)c(Nc2ccccc2P(C)(C)=O)n1 [brigatinib]
IC50 (Ba/F3 ROS1 G2032R-F2075V): 327 ± 43 nM
IC50 (Ba/F3 ROS1 D2033N): 114 ± 17 nM
IC50 (Ba/F3 ROS1 L2026M): 48 ± 4 nM
IC50 [1]: 488 ± 96.8 nM
IC50 [2]: 694 ± 204 nM
IC50 (Ba/F3 ROS1 (CD74) G2032R): 513 ± 118 nM
IC50 (Ba/F3 ROS1 (CD74) L2086F): 172 ± 47.6 nM
IC50 [3]: 329 ± 85.5 nM
IC50 [4]: > 2000 nM
IC50 [5]: 869 ± 148 nM
IC50 [6]: 8.1 ± 2.2 nM
IC50 [7]: 215 ± 50.3 nM
IC50 (Ba/F3 ROS1-G2032R): 265 ± 73 nM
IC50 [8]: 327 ± 44.8 nM
IC50 [9]: 490 ± 38.4 nM
IC50 [10]: 114 ± 25.3 nM
IC50 [12]: 47.8 ± 10.2 nM
IC50 (Ba/F3 ROS1 L2086F): 172 ± 24 nM
